Assay results from US20260217698A1 (BEYANG THERAPEUTICS CO., LTD., priority 2022, published 2026).
pIC50: −log10 of the molar value. ≈ marks a conversion by molar mass, not a printed value. Read-outs that look alike come from different tables or passages of the source.

Experiments:
[1] = tested on: male black-banded Dutch rabbits
Description: The binding of the compound to melanin may affect ocular pharmacokinetics after topical administration. […] In such cases, the compound may bind to melanin tissues in the posterior segment (retinal pigment epithelium, choroid) or anterior segment (ciliary body, iris) of the eye.

[2] = tested on: HUVEC cells; assay: Inhibition of VEGF-induced HUVEC cell proliferation, CellTiter Glo; assay type: cell-based; conditions: Homo sapiens, 20 ng/ml VEGF, 72 hours
Procedure, shortened: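 HUVEC (4000/well) serum-starved overnight in RPMI-1640 with 5% FBS, compound added 1 h before VEGF (20 ng/ml final in controls). After 72 h at 37 °C, viable cells were quantified by CellTiter-Glo luminescence; % inhibition fitted against log concentration, DMSO+VEGF wells as high control and cell-free wells as low.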

[3] = tested on: melanin; assay: Binding capacity of compounds to melanin; assay type: in vitro ADME, cuttlefish (Sepia officinalis); conditions: cuttlefish (Sepia officinalis), melanin suspension (1 mg/mL); 1 mg/mL melanin in PBS pH 7.4, 2 μM compound, 2 h at 37° C.; read-out: Fu % (percentage of free drug)
Procedure, shortened: (§1)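 Compound (2 μM final) incubated with washed Sepia melanin (1 mg/mL, PBS pH 7.4) 2 h at 37° C with shaking; PBS with 0.1% BSA served as blank. Supernatants quantified by LC-MS/MS; bound fraction Fb derived from melanin versus blank concentration.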

[4] = Binding capacity of compounds to melanin; assay type: in vitro ADME, cuttlefish (Sepia officinalis)
Procedure, shortened: as §1

[5] = Solubility test in buffer, LC-MS; assay type: physicochemical; conditions: aqueous buffer, thermodynamic from solid, room temperature, shaking 8 h, pH not given (method: pH 2.0, 6.5, 7.4)
Procedure, shortened: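 Compound at 2 mg/mL in buffers of pH 2.0, 6.5 and 7.4, sonicated, shaken 8 h at room temperature, then centrifuged at 13,000 rpm. Supernatant quantified by LC-MS against a 3–5 point calibration.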

[6] = rabbit
Protocol: We used male Dutch black-banded rabbits to assess the MTD of the compounds administered in eye drops.
Male Dutch black-banded rabbits (weighing 1.5 kg to 2.5 kg) were purchased from an eligible supplier.
A total of 8 rabbits animals with good health conditions and normal eyes (without abnormalities such as trauma, congestion, redness and swelling) were randomly divided into 4 groups. […] Eye drop administration was conducted for two consecutive days, 3 times a day, at an interval of 6±0.5 hours. Before administration, the status of the dosing preparation was inspected, and its homogeneity was ensured by means of vortexing, stirring, or shaking. Before each administration, the states of rabbit eyes were observed, including but not limited to eye color, substances around the eyes, conjunctival swelling, eye exudate, discharge, cornea, pupillary reflex, etc. Subsequently, the toxicity risk assessment for six consecutive days of eye drop administration was further conducted. A total of 8 rabbits were randomly divided into 2 groups. […] Eye drop administration was conducted 3 times a day, at an interval of 6±0.5 hours.

NC(=O)c1c(OCc2c(F)cc(Br)cc2F)nsc1NC(=O)NCCCCN1CCCC1 [PAN90806]
maximum tolerated dose (MTD) ([1]; eye drops to rabbits for six consecutive days): 50 μg/eye | maximum tolerated dose (MTD) ([1]; eye drops, male black-banded Dutch rabbits, third day after eye drop administration): 100 μg/eye | pIC50 [2]: 7.11 | fraction unbound at 2 h, 2 μM [3]: 0.0129 | Percentage of free drug with respect to melanin, comparison in words [4]: lower percentage of free drug | solubility at 8 h [5]: 124 µg/mL (≈ 234 µM) | Eye observations ([6]; 100 μg/eye, six consecutive days, seventh day): ocular toxicity (corneal opacity and conjunctival swelling, or corneal edema and conjunctival hyperemia, or ocular discharge) was observed in all the 4 rabbits | MTD on the third day of eye drop administration ([6]; eye drops 3 times a day, both eyes): 100 μg/eye | MTD on the eighth day of eye drop administration ([6]; six consecutive days of eye drops, 3 times a day): 50 μg/eye
